From patent US11827917B1, “Methods for the conversion of fermentable sugars to ethanol” (Colorado State University Research Foundation, priority 2020, dated 2023)
Entries after “also recorded” stand apart in the source; their conditions may differ. Marks after values point to notes of the source that are not given here.

Key:
S. cerevisiae JAY 270 [1] = experiment: Screening of growth in 24-well plates on YPDA; type: cell-based, Saccharomyces cerevisiae; conditions: for Cell growth score (colony size): YPDA, 30° C., 24 h; for Concentration at which cell growth was reduced in the plate assay: molar equivalent of the % w/v value; for Effect on cell growth in the plate assay (words): tested concentrations, 24-well plates
Description: Procedure: An inoculum culture of S. cerevisiae JAY 270 was grown in 100 mL of yeast extract-peptone-dextrose (YPD) medium (10 g/L yeast extract, 20 g/L peptone, 20 g/L glucose) in 200-mL serum bottles overnight in a shaker at 30° C. and 200 rpm. The cells were collected by centrifuging 10 min at 4000×g and 4° C. To wash off the medium residue, the cell pellet was resuspended in 30 mL of sterile 0.8% (w/v) NaCl solution and centrifuged at 4000×g for 10 min. The cell pellet was washed twice. Finally, the cell pellet was resuspended and diluted in 0.8% (w/v) NaCl to achieve cell concentrations of OD600=0.02 and 0.2.
The eight compounds were added in YPDA separately at 0.03%, 0.05%, 0.1%, and 0.2% (w/v). The standard control treatment contained only YPDA medium without addition of these compounds. Since the TrpOH and TyrOH stock solutions were dissolved in DMSO, the controls for those tests were YPDA with the same concentration of DMSO. A 3-mL aliquot of YPDA medium with or without the test compounds were loaded in each well of the 24-well plate.
Ten μL of the prepared S. cerevisiae JAY 270 cell suspension at OD600=0.02 or 0.2 was loaded onto the YPDA medium in each well of the 24-well plates. Then the plates were sealed with Parafilm and incubated at 30° C. for 24 h. There were four biological replicates for each treatment.
Yeast cell growth was evaluated by visual observation of the colony size in the well and scored as 0, +, ++, and +++.

S. cerevisiae JAY 270 [2] = experiment: Growth test in liquid YNB medium, low/high nitrogen, serum bottles; type: cell-based, Saccharomyces cerevisiae; conditions: 40, 200, 1000 mg/L; low and high nitrogen media
Description: A second set of tests was performed in a defined liquid medium, Yeast Nitrogen Base with Glucose (YNB), containing (NH4)2SO4 at either low (1 mM) or high (10 mM) nitrogen content. […] All serum bottles were incubated in a shaker at 30° C. and 150 RPM. Each treatment was performed in biological duplicate. Samples were collected at 0, 5, and 10 hours.

S. cerevisiae JAY 270 [3] = experiment: Serum-bottle cultivation in YPD: biomass, glycerol, ethanol yields; type: cell-based, Saccharomyces cerevisiae; conditions: for Biomass Yield / Biomass yield % change vs. control / EtOH yield / EtOH yield % change vs. control / Glycerol yield / Glycerol yield % change vs. control / Biomass yield vs. reference / Ethanol yield / Ethanol yield vs. reference / Glycerol yield vs. reference / OD600 / Effect on ethanol yield: YPD, serum bottles
Description: Procedure: Cultivations in serum bottles were used to determine the effect of the best-performing screened chemicals on the ethanol yield. S. cerevisiae JAY 270 was pre-cultured in 100 mL of YPD medium in 200-mL serum bottles overnight in a shaker at 30° C. and 200 rpm. The precultured yeast cells were collected and washed twice as described above. The cell pellet was resuspended in about 10 mL of 0.8% (w/v) NaCl and the cell concentration was estimated as OD600. TyrOH, PheOH, and TrpOH were added to 30 mL of YPD medium in 100-mL serum bottles at 0.05% and 0.2% respectively. The same amount of DMSO was added to YPD medium to serve as the control for TrpOH and TyrOH treatments. The bottles were inoculated with the prepared yeast cells to obtain an initial cell concentration of OD600=0.2. The serum bottles were sealed and cultured in a shaker at 30° C. and 200 rpm for 24 h. Each condition had three biological replicates.
Analytical methods: Cell growth was evaluated by monitoring OD600 and cell dry mass concentration. For dry mass measurements, 1.0 mL of culture was transferred to a pre-dried and pre-weighed 2-mL centrifuge tube. The tubes were centrifuged for 10 min at 14000 rpm using a microcentrifuge, and then the cell pellets were dried in an oven for 3 days at 65° C. The cell dry mass was determined by subtracting the initial tube mass from the dried mass of tube with cells. The concentrations of glucose, ethanol, and glycerol were measured via HPLC (Shimadzu LC20A series) outfitted with a refractive index detector and using an Aminex HPX-87H (300×7.8 mm) organic acid column and Cation H+ guard cartridge (Bio Rad Laboratories, Hercules, CA). The column was maintained at 65° C. and the mobile phase was 5 mM sulfuric acid with a flow rate of 0.6 mL/min. Standard compound solutions were used to calibrate the HPLC. Each sample was analyzed three times by HPLC.

yeast = experiment: Yeast growth and ethanol yield in serum bottles, low/high cell inoculum (Tables 5, 6); type: cell-based; conditions: for EtOH yield / EtOH yield % Δ from control: 26 h test
[4] = 0.05%, high cell inoculum (OD600 at 0 h 1.96)
[5] = 0.05%, low cell inoculum (OD600 at 0 h 0.70)
[6] = 0.1%, high cell inoculum (OD600 at 0 h 1.96)
[7] = 0.1%, low cell inoculum (OD600 at 0 h 0.70)
[8] = 0.2%, high cell inoculum (OD600 at 0 h 1.96)
[9] = 0.2%, low cell inoculum (OD600 at 0 h 0.70)

OCCc1ccccc1 [PheOH, 2-phenylethanol]
Cell growth score (colony size) (S. cerevisiae JAY 270 [1]; 0.03% (w/v)): +++ | Cell growth score (colony size) (S. cerevisiae JAY 270 [1]; 0.05% (w/v)): +++ | Cell growth score (colony size) (S. cerevisiae JAY 270 [1]; 0.10% (w/v)): ++ | Cell growth score (colony size) (S. cerevisiae JAY 270 [1]; 0.20% (w/v)): + | Concentration at which cell growth was reduced in the plate assay (S. cerevisiae JAY 270 [1]): 8.2 mM | Effect on cell growth in the plate assay (words) (S. cerevisiae JAY 270 [1]): inhibited growth; also recorded: reduced the growth | Inhibitory effect on yeast cell growth in liquid YNB medium (S. cerevisiae JAY 270 [2]): inhibitory at 1000 mg/L in both media, but not at 40 and 200 mg/L | Cell dry mass concentration, % of the control (S. cerevisiae JAY 270 [3]; 0.05%): 85% | Biomass Yield (S. cerevisiae JAY 270 [3]; 0.05% (w/v)): 0.088 + 0.001 g/g | Biomass yield % change vs. control (S. cerevisiae JAY 270 [3]; 0.05% (w/v)): −11* % | EtOH yield (S. cerevisiae JAY 270 [3]; 0.05% (w/v)): 0.40 ± 0.00 g/g | EtOH yield % change vs. control (S. cerevisiae JAY 270 [3]; 0.05% (w/v)): 3.7% | Glycerol yield (S. cerevisiae JAY 270 [3]; 0.05% (w/v)): 0.031 ± 0.001 g/g | Glycerol yield % change vs. control (S. cerevisiae JAY 270 [3]; 0.05% (w/v)): −4.6% | Biomass yield vs. reference (S. cerevisiae JAY 270 [3]; 0.05%): −10.8% | Ethanol yield (S. cerevisiae JAY 270 [3]; 0.05%): 0.40 ± 0.00 g/g | Ethanol yield vs. reference (S. cerevisiae JAY 270 [3]; 0.05%): 3.7% | Glycerol yield (S. cerevisiae JAY 270 [3]; 0.05%): 0.031 ± 0.001 g/g | Glycerol yield vs. reference (S. cerevisiae JAY 270 [3]; 0.05%): −4.6% | OD600 (S. cerevisiae JAY 270 [3]; 0.05%): 3.35 | Cell dry mass concentration, % of the control (S. cerevisiae JAY 270 [3]; 0.2%): 71% | Effect on yeast cell growth (S. cerevisiae JAY 270 [3]; 0.2%): reduced yeast cell growth | Biomass Yield (S. cerevisiae JAY 270 [3]; 0.2% (w/v)): 0.064 + 0.002 g/g | Biomass yield % change vs. control (S. cerevisiae JAY 270 [3]; 0.2% (w/v)): −35* % | EtOH yield (S. cerevisiae JAY 270 [3]; 0.2% (w/v)): 0.41 ± 0.01 g/g | EtOH yield % change vs. control (S. cerevisiae JAY 270 [3]; 0.2% (w/v)): 6.2* % | Glycerol yield (S. cerevisiae JAY 270 [3]; 0.2% (w/v)): 0.025 ± 0.001 g/g | Glycerol yield % change vs. control (S. cerevisiae JAY 270 [3]; 0.2% (w/v)): −25* % | Biomass yield vs. reference (S. cerevisiae JAY 270 [3]; 0.2%): −35.3% | Effect on ethanol yield (S. cerevisiae JAY 270 [3]; 0.2%): increased the ethanol yield significantly | Ethanol yield (S. cerevisiae JAY 270 [3]; 0.2%): 0.41 ± 0.01 g/g | Ethanol yield vs. reference (S. cerevisiae JAY 270 [3]; 0.2%): 6.2% | Glycerol yield (S. cerevisiae JAY 270 [3]; 0.2%): 0.025 ± 0.001 g/g | Glycerol yield vs. reference (S. cerevisiae JAY 270 [3]; 0.2%): −25.1% | OD600 (S. cerevisiae JAY 270 [3]; 0.2%): 2.44 | OD600 at 26 h (yeast; [4]): 4.24 | EtOH yield (yeast; [4]): 0.47 g/g | EtOH yield % Δ from control (yeast; [4]): 3.1% | OD600 at 26 h (yeast; [5]): 3.28 | EtOH yield (yeast; [5]): 0.47 g/g | EtOH yield % Δ from control (yeast; [5]): −1.9% | OD600 at 26 h (yeast; [6]): 3.99 | EtOH yield (yeast; [6]): 0.47 g/g | EtOH yield % Δ from control (yeast; [6]): 1.7% | OD600 at 26 h (yeast; [7]): 2.83 | EtOH yield (yeast; [7]): 0.45 g/g | EtOH yield % Δ from control (yeast; [7]): −4.6% | OD600 at 26 h (yeast; [8]): 3.53 | EtOH yield (yeast; [8]): 0.48 g/g | EtOH yield % Δ from control (yeast; [8]): 4.9% | OD600 at 26 h (yeast; [9]): 2.41 | EtOH yield (yeast; [9]): 0.47 g/g | EtOH yield % Δ from control (yeast; [9]): −1.1%

OCCc1ccc(O)cc1 [TyrOH, Tyrosol]
Cell growth score (colony size) (S. cerevisiae JAY 270 [1]; 0.03% (w/v)): +++ | Cell growth score (colony size) (S. cerevisiae JAY 270 [1]; 0.05% (w/v)): +++ | Cell growth score (colony size) (S. cerevisiae JAY 270 [1]; 0.10% (w/v)): +++ | Cell growth score (colony size) (S. cerevisiae JAY 270 [1]; 0.20% (w/v)): + | Concentration at which cell growth was reduced in the plate assay (S. cerevisiae JAY 270 [1]): 7.2 mM | Effect on cell growth in the plate assay (words) (S. cerevisiae JAY 270 [1]): inhibited growth; also recorded: reduced the growth | Inhibitory effect on yeast cell growth in liquid YNB medium (S. cerevisiae JAY 270 [2]): inhibitory at 1000 mg/L in both media, but not at 40 and 200 mg/L | Biomass Yield (S. cerevisiae JAY 270 [3]; 0.05% (w/v)): 0.095 + 0.001 g/g | Biomass yield % change vs. control (S. cerevisiae JAY 270 [3]; 0.05% (w/v)): −5% | EtOH yield (S. cerevisiae JAY 270 [3]; 0.05% (w/v)): 0.38 ± 0.01 g/g | EtOH yield % change vs. control (S. cerevisiae JAY 270 [3]; 0.05% (w/v)): 0.8% | Glycerol yield (S. cerevisiae JAY 270 [3]; 0.05% (w/v)): 0.031 ± 0.001 g/g | Glycerol yield % change vs. control (S. cerevisiae JAY 270 [3]; 0.05% (w/v)): −9% | Biomass yield vs. reference (S. cerevisiae JAY 270 [3]; 0.05%): −5.0% | Ethanol yield (S. cerevisiae JAY 270 [3]; 0.05%): 0.38 ± 0.01 g/g | Ethanol yield vs. reference (S. cerevisiae JAY 270 [3]; 0.05%): 0.8% | Glycerol yield (S. cerevisiae JAY 270 [3]; 0.05%): 0.031 ± 0.001 g/g | Glycerol yield vs. reference (S. cerevisiae JAY 270 [3]; 0.05%): −9.0% | OD600 (S. cerevisiae JAY 270 [3]; 0.05%): 3.66 | Effect on yeast cell growth (S. cerevisiae JAY 270 [3]; 0.2%): reduced yeast cell growth | Biomass Yield (S. cerevisiae JAY 270 [3]; 0.2% (w/v)): 0.085 + 0.003 g/g | Biomass yield % change vs. control (S. cerevisiae JAY 270 [3]; 0.2% (w/v)): −15* % | EtOH yield (S. cerevisiae JAY 270 [3]; 0.2% (w/v)): 0.40 ± 0.00 g/g | EtOH yield % change vs. control (S. cerevisiae JAY 270 [3]; 0.2% (w/v)): 6.9* % | Glycerol yield (S. cerevisiae JAY 270 [3]; 0.2% (w/v)): 0.027 ± 0.000 g/g | Glycerol yield % change vs. control (S. cerevisiae JAY 270 [3]; 0.2% (w/v)): −20* % | Biomass yield vs. reference (S. cerevisiae JAY 270 [3]; 0.2%): −15.3% | Effect on ethanol yield (S. cerevisiae JAY 270 [3]; 0.2%): increased the ethanol yield significantly | Ethanol yield (S. cerevisiae JAY 270 [3]; 0.2%): 0.40 ± 0.00 g/g | Ethanol yield vs. reference (S. cerevisiae JAY 270 [3]; 0.2%): 6.9% | Glycerol yield (S. cerevisiae JAY 270 [3]; 0.2%): 0.027 ± 0.000 g/g | Glycerol yield vs. reference (S. cerevisiae JAY 270 [3]; 0.2%): −19.9% | OD600 (S. cerevisiae JAY 270 [3]; 0.2%): 3.27
